Data: ChEMBL document CHEMBL2401691, “Synthesis and optimization of a novel series of HCV NS3 protease inhibitors: 4-arylproline analogs” (Bioorg Med Chem Lett, 2013)
Converted amounts (≈) assume the structure as drawn.

Legend:
[1] = Half life in human liver microsomes; assay type: ADME, Microsome
[2] = Solubility of the compound after 24 hrs at pH 7.2; assay type: physicochemical; conditions: buffer
[3] = Half life in rat liver microsomes; assay type: ADME, Microsome
[4] = Volume of distribution at steady state in rat at 2 mg/kg, iv; assay type: ADME, organism-based; design: dose 2 mg/kg, route intravenous; conditions: in vivo, read-out: Vdss
[5] = Oral bioavailability in rat at 5 mg/kg; assay type: ADME, organism-based; conditions: in vivo
[6] = Total clearance in rat at 2 mg/kg, iv; assay type: ADME, organism-based; design: dose 2 mg/kg, route intravenous; conditions: in vivo
[7] = Cmax in rat at 5 mg/kg, po; assay type: ADME, organism-based; design: dose 5 mg/kg, route oral; conditions: in vivo
[8] = AUC (0 to infinity) in rat at 5 mg/kg, po; assay type: ADME, organism-based; design: time infinity, dose 5 mg/kg, route oral; conditions: plasma
[9] = Half life in rat at 2 mg/kg, iv; assay type: ADME, organism-based; design: dose 2 mg/kg, route intravenous; conditions: in vivo
[10] = Plasma concentration in rat at 5 mg/kg, po after 6 hrs; assay type: ADME, organism-based; design: dose 5 mg/kg, route oral
[11] = Ratio of drug level in rat liver to plasma at 5 mg/kg, po after 6 hrs; assay type: ADME, organism-based; design: dose 5 mg/kg, route oral
[12] = Drug uptake in rat liver at 5 mg/kg, po after 6 hrs; assay type: ADME, organism-based; design: dose 5 mg/kg, route oral; conditions: read-out: Drug uptake

Structure (SMILES) | half-life [1] | solubility at 24 h [2] | half-life [3] | other results
C=C[C@@H]1C[C@]1(NC(=O)[C@@H]1C[C@@](OC)(c2ccc(-c3ccccc3OC)cc2)CN1C(=O)[C@@H](NC(=O)OC1CCCC1)C(C)(C)C)C(=O)NS(=O)(=O)C1CC1 | 0.717 h | 36 µg/mL (≈ 47.1 µM) | – | –
C=C[C@@H]1C[C@]1(NC(=O)[C@@H]1C[C@@](OC)(c2ccc(-c3ccc(OC)cc3)cc2)CN1C(=O)[C@@H](NC(=O)OC1CCCC1)C(C)(C)C)C(=O)NS(=O)(=O)C1CC1 | 0.85 h | 17 µg/mL (≈ 22.2 µM) | 1.4 h | –
C=C[C@@H]1C[C@]1(NC(=O)[C@@H]1C[C@@](OC)(c2ccc(-c3ccncc3)cc2)CN1C(=O)[C@@H](NC(=O)OC1CCCC1)C(C)(C)C)C(=O)NS(=O)(=O)C1CC1 | 1.32 h | > 790 µg/mL | 1.83 h | –
C=C[C@@H]1C[C@]1(NC(=O)[C@@H]1C[C@@](OC)(c2ccc(-c3ccccc3)cc2)CN1C(=O)[C@@H](NC(=O)OC1CCCC1)C(C)(C)C)C(=O)NS(=O)(=O)C1CC1 | 1.18 h | 43 µg/mL (≈ 58.5 µM) | 1.98 h | Vd [4]: 3.04 L/kg; bioavailability [5]: 33%; clearance [6]: 28 mL/min/kg; Cmax [7]: 320 nM; AUC(0-inf) [8]: 1.32 µM·h; half-life [9]: 2.94 h; concentration at 6 h [10]: 50 nM; Kp at 6 h [11]: 45; concentration at 6 h [12]: 2300 nM
C=C[C@@H]1C[C@]1(NC(=O)[C@@H]1C[C@@](OC)(c2ccc(-c3cccc(OC)c3)cc2)CN1C(=O)[C@@H](NC(=O)OC1CCCC1)C(C)(C)C)C(=O)NS(=O)(=O)C1CC1 | 1.12 h | 19 µg/mL (≈ 24.8 µM) | – | –
C=C[C@@H]1C[C@]1(NC(=O)[C@@H]1C[C@@](OC)(c2ccc(-c3cnn(C)c3)cc2)CN1C(=O)[C@@H](NC(=O)OC1CCCC1)C(C)(C)C)C(=O)NS(=O)(=O)C1CC1 | 1.37 h | 540 µg/mL (≈ 731 µM) | 2 h | –

Now from value to molecule, other results behind:

half-life [1] | solubility at 24 h [2] | half-life [3] | Structure (SMILES) | other results
1.1 h | 452 µg/mL (≈ 609 µM) | 1.1 h | C=C[C@@H]1C[C@]1(NC(=O)[C@@H]1C[C@@](OC)(c2ccc(-c3nccs3)cc2)CN1C(=O)[C@@H](NC(=O)OC1CCCC1)C(C)(C)C)C(=O)NS(=O)(=O)C1CC1 | –
0.917 h | – | – | C=C[C@@H]1C[C@]1(NC(=O)[C@@H]1C[C@@](OC)(c2ccc(-c3ccc(C)cn3)cc2)CN1C(=O)[C@@H](NC(=O)OC1CCCC1)C(C)(C)C)C(=O)NS(=O)(=O)C1CC1 | –
1.45 h | 600 µg/mL (≈ 815 µM) | 2 h | C=C[C@@H]1C[C@]1(NC(=O)[C@@H]1C[C@@](OC)(c2ccc(-c3ccccc3)nc2)CN1C(=O)[C@@H](NC(=O)OC1CCCC1)C(C)(C)C)C(=O)NS(=O)(=O)C1CC1 | –
2.28 h | > 920 µg/mL | – | C=C[C@@H]1C[C@]1(NC(=O)[C@@H]1C[C@@](OC)(c2ccc(-c3nccs3)nc2)CN1C(=O)[C@@H](NC(=O)OC1CCCC1)C(C)(C)C)C(=O)NS(=O)(=O)C1CC1 | –
1.4 h | 310 µg/mL (≈ 397 µM) | 1.42 h | C=C[C@@H]1C[C@]1(NC(=O)[C@@H]1C[C@@](OC)(c2ccc(-c3cc(C)ccc3OC)nc2)CN1C(=O)[C@@H](NC(=O)OC1CCCC1)C(C)(C)C)C(=O)NS(=O)(=O)C1CC1 | –
0.9 h | 540 µg/mL (≈ 728 µM) | 3.67 h | C=C[C@@H]1C[C@]1(NC(=O)[C@@H]1C[C@@](OC)(c2ccc(-c3cscn3)cc2)CN1C(=O)[C@@H](NC(=O)OC1CCCC1)C(C)(C)C)C(=O)NS(=O)(=O)C1CC1 | –
0.883 h | 940 µg/mL (≈ 1280 µM) | 2.17 h | C=C[C@@H]1C[C@]1(NC(=O)[C@@H]1C[C@@](OC)(c2ccc(-c3cccnc3)cc2)CN1C(=O)[C@@H](NC(=O)OC1CCCC1)C(C)(C)C)C(=O)NS(=O)(=O)C1CC1 | –
